From PMC8588310, “Identification and Preliminary Structure-Activity Relationship Studies of 1,5-Dihydrobenzo[e][1,4]oxazepin-2(3H)-ones That Induce Differentiation of Acute Myeloid Leukemia Cells In Vitro” (Molecules, 2021) come the findings set out here.

Converted amounts (≈) assume the structure as drawn.

The test system of one series is HL-60 cells. Nature of the series: CD11b expression assay by flow cytometry in HL-60 cells. Type of series: cell-based, human. The following applies: for Activity in the CD11b assay / EC50: HL-60 cells; for Activity in the CD11b assay: concentration-response; for EC50: Homo sapiens, HL-60, 96 h, 4-day (96 h) treatment, CD11b upregulation, read-out: EC50 [nM], %CD11b response in HL60 cells; for LipE (lipophilic efficiency): LipE = -LogEC50-cLogP, EC50 of CD11b assay in HL-60. Here is the method:
Cells were treated with 1000 structurally diverse small molecules selected from a commercial library. A single point testing concentration of 10 µM was used. After 4 days, cells were stained with a CD11b antibody and analysed using flow cytometry. Compounds upregulating CD11b expression greater than 10% in at least three of the cell lines were considered as potential hits. Hit confirmation was undertaken as follows: first, the hit was re-tested at 10 µM both with the CD11b antibody and an isotype control to account for nonspecific binding. Secondly, the effect of the hit on cell proliferation and viability was evaluated through staining with DAPI to evaluate the number of dead cells, and with acridine orange to detect total cell numbers. Thirdly, the induction of differentiation caused by the compounds was confirmed through morphology assessment with Giemsa staining. Finally, the molecule was resynthesised and fully characterised to confirm structural authenticity. This fresh sample was then retested in the CD11b assay to generate a concentration-response curve. The study of proliferation and morphology was performed on a panel of six cell lines: HL-60, THP-1, OCI-AML3, KG-1, Kasumi-1 and ME-1.
Thus, structure-activity relationship studies were initiated, where the potency of the new analogues was evaluated through concentration-response testing using the CD11b assay in HL-60 cells. Lipophilic efficiency (LipE), which also accounts for lipophilicity, was also used to compare the quality of the analogues. Even though multiple parameters can influence activity in a cell-based assay, LipE is a useful guide to compare analogues.
PE mouse-anti-human-CD11b/Mac-1 (ICRF44, Cat 555388) and PE-mouse-IgG1-κ-isotype control (MOPC-21, Cat 555749) were purchased from BD Bioscience. Cells were suspended in 100 μL growth media (RPMI + 10% FBS + 1% L-glutamine) at a density of 2 × 10^4 cells/well of a V-bottom 96 well plate (Corning, Cat 3894) and grown for 96 h in the presence of compound at the required concentration. After 96 h, the plate was centrifuged, media was removed, and cells were resuspended in 50 µL of blocking buffer (IMDM, no phenol red + 10% FBS) containing 2.5 μL of either CD11b or isotype control antibody and incubated on ice in the dark for 20 min. Cells were washed twice in 200 μL of staining buffer (IMDM, no phenol red + 1% FBS) before being resuspended in 200 μL of staining buffer containing 1 μg/mL of DAPI to help identify dead cells. Flow cytometry data were collected on an Attune NxT and analysed using the Attune NxT software (Life Technologies).

For another series, the target named is T1, porcine neuronal tubulin (Sus scrofa, UniProt P02550+P02554).
T1 construct: performed using porcine neuronal tubulin (Cytoskeleton, Inc, Denver, CO, USA, BK006P); purchased Cytoskeleton, Inc BK006P; host or cells: porcine brain (neuronal) tissue
T1 sequence (P02550 whole entry): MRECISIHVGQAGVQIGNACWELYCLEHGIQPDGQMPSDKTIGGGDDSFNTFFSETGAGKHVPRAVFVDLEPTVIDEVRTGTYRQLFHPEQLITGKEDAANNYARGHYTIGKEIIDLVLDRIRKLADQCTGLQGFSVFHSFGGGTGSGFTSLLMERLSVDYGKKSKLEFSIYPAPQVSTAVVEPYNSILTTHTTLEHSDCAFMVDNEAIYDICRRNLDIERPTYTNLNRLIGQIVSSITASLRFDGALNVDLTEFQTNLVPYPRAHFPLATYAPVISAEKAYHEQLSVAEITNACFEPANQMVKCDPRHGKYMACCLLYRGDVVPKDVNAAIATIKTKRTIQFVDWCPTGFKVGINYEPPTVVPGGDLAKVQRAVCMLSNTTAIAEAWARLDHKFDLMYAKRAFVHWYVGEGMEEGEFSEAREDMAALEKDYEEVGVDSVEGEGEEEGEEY
T1 sequence (P02554 whole entry): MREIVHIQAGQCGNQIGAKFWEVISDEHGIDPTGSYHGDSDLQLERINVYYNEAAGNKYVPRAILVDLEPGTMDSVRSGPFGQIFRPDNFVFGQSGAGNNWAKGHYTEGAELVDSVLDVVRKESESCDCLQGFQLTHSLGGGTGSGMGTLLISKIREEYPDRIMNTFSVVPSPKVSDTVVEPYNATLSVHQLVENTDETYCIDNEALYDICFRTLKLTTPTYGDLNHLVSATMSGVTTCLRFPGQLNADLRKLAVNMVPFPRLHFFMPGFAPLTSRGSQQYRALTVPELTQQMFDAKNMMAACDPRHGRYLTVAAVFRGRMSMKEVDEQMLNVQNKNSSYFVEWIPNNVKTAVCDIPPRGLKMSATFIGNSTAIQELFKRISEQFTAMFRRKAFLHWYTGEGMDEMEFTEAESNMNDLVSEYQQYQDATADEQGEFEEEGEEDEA
The series can be described thus: Microtubule (tubulin) polymerisation cell-free assay. Type of series: biochemical. The following applies: testing concentrations of up to 100 μM. How it is done: The microtubule polymerisation assay was performed using porcine neuronal tubulin (Cytoskeleton, Inc, Denver, CO, USA, BK006P) as an adaptation of the original method of Shelanski et al. and Lee et al. at Cytoskeleton, Inc.

The nature of series [1]: Metabolic stability in mouse S9 fraction. Type of series: in vitro ADME. The note with it: ER = Clint/species flow rate (mice: 90 mL/min/kg). Here is the method: (§1) Determination of semi-thermodynamic solubility, metabolic stability in S9 fraction, Caco-2 permeability and PPB were performed by Cyprotex Ltd. (www.cyprotex.com, accessed on 22 October 2021) using their standard assays and as described on their website.
[22] Extraction ratio (ER) is calculated as the measured intrinsic clearance over the hepatic blood flow of each species (90 mL/min/kg for mice). It has the advantage over other parameters (half-life, clearance) that it is independent of the species used

The nature of series [2]: Semi-thermodynamic aqueous solubility. Type of series: physicochemical. The note with it: thermodynamic from solid. How it is done: as §1
The nature of series [3]: Single dose PK study in male CD-1 mice. Type of series: in vivo, mouse. The text has this:
In order to undertake a preliminary assessment of the pharmacokinetic (PK) profile of this compound class, three compounds were deemed to have sufficient intrinsic potency, solubility and in vitro metabolic stability properties to progress into a single dose in vivo PK study. […] […] […] Nonetheless, the clearance of the three compounds was high to moderate, and at this dose the in vitro EC50 was not reached.
Male CD-1 mice were used for the PK studies, with three for each treatment. […] Blood concentration was measured by LC-MS/MS over 24 h.

[4] abbreviates: aqueous (buffer or water not specified).
The mark [5] stands for this setting: aqueous (not further specified).
The mark [6] stands for this setting: mouse, whole blood, single dose 3 mg/kg po, blood.

For the compound `CC(C)N1C(=O)COCc2ccc(-c3ccccc3NS(C)(=O)=O)cc21` [Compound 25, N-(2-(1-Isopropyl-2-oxo-1,2,3,5-tetrahydrobenzo[e][1,4]oxazepin-8-yl)phenyl)methanesulfonamide], in the series on HL-60 cells, the “Activity in the CD11b assay” value is “inactive” and the EC50 is over 30000 nM. Besides, the “Effect on polymerisation of tubulin” value on porcine neuronal tubulin was “did not have an effect”.
As to `CS(=O)(=O)Nc1cccc(-c2ccc3c(c2)N(C2COC2)C(=O)COC3)c1` [Compound 13, N-(3-(1-(Oxetan-3-yl)-2-oxo-1,2,3,5-tetrahydrobenzo[e][1,4]oxazepin-8-yl)phenyl)methanesulfonamide], the EC50 in the series with HL-60 cells was over 10000 nM. For the same compound, the “ER in mS9 (extraction ratio)” value in series [1] came out at 0.08. Besides, the solubility (thermodynamic) in series [2] (setting [4]) worked out at 10 µM (≈ 3.88 µg/mL).
Turning to `COC(=O)Nc1cccc(-c2ccc3c(c2)N(C(C)C)C(=O)COC3)c1` [Compound 28, Methyl (3-(1-isopropyl-2-oxo-1,2,3,5-tetrahydrobenzo[e][1,4]oxazepin-8-yl)phenyl)carbamate], in the series with HL-60 cells, the “Activity in the CD11b assay” value was “equally active”, the EC50 turned out to be 500 nM and the “LipE (lipophilic efficiency)” value worked out at 3.7. In addition, in series [1], the “ER in mS9 (extraction ratio)” value is listed as 0.31. This compound also displayed a thermodynamic solubility in series [2] (setting [5]) of 88 µM (≈ 31.2 µg/mL).
Regarding `COc1ccc(-c2ccc3c(c2)N(C(C)C)C(=O)COC3)cc1NS(C)(=O)=O` [Compound 37, N-(5-(1-Isopropyl-2-oxo-1,2,3,5-tetrahydrobenzo[e][1,4]oxazepin-8-yl)-2-methoxyphenyl)methanesulfonamide], in the series on HL-60 cells, the EC50 came out at 1200 nM and the “LipE (lipophilic efficiency)” value is reported as 4.2. Further, the “ER in mS9 (extraction ratio)” value in series [1] is on record as 1. The same compound displayed a thermodynamic solubility in series [2] (setting [5]) of over 200 µM.
With `CS(=O)(=O)Nc1cccc(-c2ccc3c(c2)N(CC2CC2)C(=O)OC3)c1` [Compound 41, N-(3-(1-(Cyclopropylmethyl)-2-oxo-1,4-dihydro-2H-benzo[d][1,3]oxazin-7-yl)phenyl)methanesulfonamide], the “Loss in activity compared to OXS003976” value in the series on HL-60 cells (CD11b EC50 in HL-60, vs OXS003976) worked out at 15 fold. In the series on HL-60 cells, the EC50 is 15000 nM and the “LipE (lipophilic efficiency)” value stood at 2.5. Further, in series [1], the “ER in mS9 (extraction ratio)” value is listed as 0.54. For the same compound, in series [2] (aqueous medium (buffer not specified)), the solubility (thermodynamic) was 77 µM (≈ 28.7 µg/mL).
Regarding `CC(C)N1C(=O)COCc2ccc(-c3ccc(F)c(NS(C)(=O)=O)c3)cc21` [Compound 35, N-(2-Fluoro-5-(1-isopropyl-2-oxo-1,2,3,5-tetrahydrobenzo[e][1,4]oxazepin-8-yl)phenyl)methanesulfonamide], in the series with HL-60 cells, the EC50 was 1600 nM and the “LipE (lipophilic efficiency)” value was 4.0. The “ER in mS9 (extraction ratio)” value in series [1] is given as 0.21. In series [2] (setting [5]), this compound yielded a thermodynamic solubility of over 200 µM.
Regarding `CS(=O)(=O)Nc1cccc(-c2ccc3c(c2)N(CC(F)(F)F)C(=O)COC3)c1` [Compound 11, N-(3-(2-Oxo-1-(2,2,2-trifluoroethyl)-1,2,3,5-tetrahydrobenzo[e][1,4]oxazepin-8-yl)phenyl)methanesulfonamide], in the series on HL-60 cells, the EC50 was 1900 nM and the “LipE (lipophilic efficiency)” value is given as 3.8. In addition, the “ER in mS9 (extraction ratio)” value in series [1] is 0.05. The compound also had a solubility (thermodynamic) in series [2] (setting [4]) of 33 µM (≈ 13.7 µg/mL). In series [3] (mouse, whole blood, 3 mg/kg po vs 0.33 mg/kg iv), the bioavailability worked out at 38%. This compound also gave a half-life in series [3] (mouse, whole blood, single dose 3 mg/kg po and 0.33 mg/kg iv, blood, route of parameter not given) of 5.8 h. In series [3] (setting [6]), the Cmax was found to be 160 ng/mL and the Tmax was found to be 0.33 h. Further, the Vd/F in series [3] (mouse, whole blood, single dose 3 mg/kg po, blood, read-out: Vz/F) amounted to 73 L/kg. In series [3] (single dose 0.33 mg/kg iv, blood), this compound returned a Clobs of 61 mL/min/kg. In series [3] (single dose 3 mg/kg po, blood), this compound showed a Clobs/F of 159 mL/min/kg.
